Tested on: subjects who use video display terminals (VDT) for long time and tend to have asthenopia
Experiment: Human feeding test: detection of visuognosis persistence (asthenopia remission test)
Assay type: in vivo
Details: after feeding tablets 35 days, once per day, two tablets, compared with before feeding; FIG. 1
Excerpt: As used herein, the term “visuognosis persistence” is an index for evaluating asthenopia. When the cortical excitability in the human brain reduces, the visual analysis function decreases, in the process of eyes fixating at object, invisible duration will increase and visuognosis duration will decrease. […] X^2 test was used for performance indexes.

SMILES: CC1=C[C@H](O)CC(C)(C)[C@H]1/C=C/C(C)=C/C=C/C(C)=C/C=C/C=C(C)/C=C/C=C(C)/C=C/C1=C(C)C[C@@H](O)CC1(C)C [lutein]
- visuognosis persistence increased: 10.27±8.56%

From US20090297618A1, “COMPOSITION BENEFICIAL FOR VISUOGNOSIS PERSISTENCE AND USE THEREOF” (Zhejiang Medicine Co., Ltd. Xinchang Pharmaceutical Factory, priority 2008, published 2009)
